Where two headings read alike, the source gives them in different places. Where a SMILES comes first, the peptide text is derived from it. Side-chain parts run from the residue outwards. [ ]: non-standard residue; d: D form. The star is where a group is joined. DOTA = O=C(O)CN1CCN(CC(=O)O)CCN(CC(=O)*)CCN(CC(=O)O)CC1; 2Nal = N[C@@H](Cc1ccc2ccccc2c1)C(=O)O; dNMeOrn = CN[C@H](CCCN)C(=O)O; 4Abz = Nc1ccc(C(=O)O)cc1
Experiment: Biodistribution in Daudi xenograft bearing mice
Type: in vivo, mouse
Conditions: female, CB-17 SCID, mouse, iv, total radioactivity; for tissue uptake at 6 h: 6h p.i.; for tissue uptake at 6 h / tissue uptake at 48 h: i.v., n=4-5; for tissue uptake at 6 h / tissue uptake at 48 h / tissue to tissue ratio at 48 h: means ± SD; for tissue uptake at 48 h / tissue to tissue ratio at 48 h: 48h p.i.; for tissue uptake at 1 h: 1h p.i., coinjection of 50 µg AMD3100/animal, n=1; for tissue to tissue ratio at 48 h: n=4-5 animals
How it was run: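 Female CB-17 SCID mice with Daudi xenografts (n=4-5) received 5-10 MBq (0.08-0.11 nmol) ^68Ga- or ^177Lu-labelled ligand i.v.; blocking by coinjected 50 µg AMD3100. Organs counted by γ-counter at 1, 6 and 48 h p.i.; %ID/g (mean ± SD).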

[1] = adrenals, read-out: Biodistribution adrenals
[2] = blood, read-out: Biodistribution blood
[3] = colon, read-out: Biodistribution colon
[4] = femur, read-out: Biodistribution femur
[5] = heart, read-out: Biodistribution heart
[6] = kidney, read-out: Biodistribution kidney
[7] = liver, read-out: Biodistribution liver
[8] = lung, read-out: Biodistribution lung
[9] = muscle, read-out: Biodistribution muscle
[10] = pancreas, read-out: Biodistribution pancreas
[11] = small intestine, read-out: Biodistribution small intestine
[12] = spleen, read-out: Biodistribution spleen
[13] = stomach, read-out: Biodistribution stomach
[14] = tumor (Daudi xenograft), read-out: Biodistribution tumor (Daudi xenograft)

What does the source list for `C[C@@H](NC(=O)[C@@H](CCCNC(=N)N)NC(=O)CN1CCN(CC(=O)O)CCN(CC(=O)O)CCN(CC(=O)O)CC1)C(=O)Nc1ccc(C(=O)NCCC[C@@H]2C(=O)N[C@@H](CCCNC(=N)N)C(=O)N[C@@H](Cc3ccc4ccccc4c3)C(=O)NCC(=O)N[C@H](Cc3ccc(O)cc3)C(=O)N2C)cc1` [[^177Lu]DOTA-r-a-ABA-CPCR4, metal not drawn] (cyclo([2Nal]G[dY][dNMeOrn]([4Abz-dA-dR-DOTA])R))?
tissue uptake at 6 h [1]: 0.51 ± 0.12 %ID/g; tissue uptake at 48 h [1]: 0.33 ± 0.08 %ID/g; tissue uptake at 1 h (adrenals, with AMD3100, 50 µg per animal, coinjected (CXCR4 competition), read-out: Biodistribution adrenals, + AMD3100): 1.22 %ID/g; tissue uptake at 6 h [2]: 0.05 ± 0.01 %ID/g; tissue uptake at 48 h [2]: 0.01 %ID/g; tissue uptake at 1 h (blood, with AMD3100, 50 µg per animal, coinjected (CXCR4 competition), read-out: Biodistribution blood, + AMD3100): 1.9 %ID/g; tissue uptake at 6 h [3]: 0.65 ± 0.3 %ID/g; tissue uptake at 48 h [3]: 0.44 ± 0.22 %ID/g; tissue uptake at 1 h (colon, with AMD3100, 50 µg per animal, coinjected (CXCR4 competition), read-out: Biodistribution colon, + AMD3100): 0.74 %ID/g; tissue uptake at 6 h [4]: 0.3 ± 0.05 %ID/g; tissue uptake at 48 h [4]: 0.29 ± 0.05 %ID/g; tissue uptake at 1 h (femur, with AMD3100, 50 µg per animal, coinjected (CXCR4 competition), read-out: Biodistribution femur, + AMD3100): 0.74 %ID/g; tissue uptake at 1 h (heart, read-out: Biodistribution heart, + AMD3100): 1.07 %ID/g; tissue uptake at 6 h [5]: 0.13 ± 0.02 %ID/g; tissue uptake at 48 h [5]: 0.08 ± 0.01 %ID/g; tissue uptake at 6 h [6]: 7.1 ± 2.06 %ID/g; tissue uptake at 48 h [6]: 3.05 ± 0.15 %ID/g; tissue uptake at 1 h (kidney, with AMD3100, 50 µg per animal, coinjected (CXCR4 competition), read-out: Biodistribution kidney, + AMD3100): 10.3 %ID/g; tissue uptake at 1 h (liver, read-out: Biodistribution liver, + AMD3100): 5.46 %ID/g; tissue uptake at 6 h [7]: 11.3 ± 2.83 %ID/g; tissue uptake at 48 h [7]: 8.99 ± 1.62 %ID/g; tissue uptake at 1 h (lung, read-out: Biodistribution lung, + AMD3100): 3.34 %ID/g; tissue uptake at 6 h [8]: 0.27 ± 0.06 %ID/g; tissue uptake at 48 h [8]: 0.19 ± 0.08 %ID/g; tissue uptake at 6 h [9]: 0.04 ± 0.01 %ID/g; tissue uptake at 48 h [9]: 0.02 %ID/g; tissue uptake at 1 h (muscle, with AMD3100, 50 µg per animal, coinjected (CXCR4 competition), read-out: Biodistribution muscle, + AMD3100): 0.38 %ID/g; tissue uptake at 6 h [10]: 0.08 ± 0.02 %ID/g; tissue uptake at 48 h [10]: 0.07 ± 0.01 %ID/g; tissue uptake at 1 h (pancreas, with AMD3100, 50 µg per animal, coinjected (CXCR4 competition), read-out: Biodistribution pancreas, + AMD3100): 0.61 %ID/g; tissue uptake at 6 h [11]: 0.3 ± 0.06 %ID/g; tissue uptake at 48 h [11]: 0.16 ± 0.11 %ID/g; tissue uptake at 1 h (small intestine, with AMD3100, 50 µg per animal, coinjected (CXCR4 competition), read-out: Biodistribution small intestine, + AMD3100): 1.36 %ID/g; tissue uptake at 6 h [12]: 1.41 ± 0.24 %ID/g; tissue uptake at 48 h [12]: 1.06 ± 0.33 %ID/g; tissue uptake at 1 h (spleen, with AMD3100, 50 µg per animal, coinjected (CXCR4 competition), read-out: Biodistribution spleen, + AMD3100): 1.11 %ID/g; tissue uptake at 6 h [13]: 0.25 ± 0.07 %ID/g; tissue uptake at 48 h [13]: 0.19 ± 0.13 %ID/g; tissue uptake at 1 h (stomach, with AMD3100, 50 µg per animal, coinjected (CXCR4 competition), read-out: Biodistribution stomach, + AMD3100): 2.46 %ID/g; tissue uptake at 6 h [14]: 13.6 ± 3.33 %ID/g; tissue uptake at 48 h [14]: 8.81 ± 0.99 %ID/g; tissue uptake at 1 h (tumor (Daudi xenograft), with AMD3100, 50 µg per animal, coinjected (CXCR4 competition), read-out: Biodistribution tumor, + AMD3100): 3.04 %ID/g; tissue to tissue ratio at 48 h (tumor / blood, read-out: Tumor/organ ratio t/blood): 949 ± 146; tissue to tissue ratio at 48 h (tumor / colon, read-out: Tumor/organ ratio t/colon): 20 ± 10; tissue to tissue ratio at 48 h (tumor / heart, read-out: Tumor/organ ratio t/heart): 111 ± 20; tissue to tissue ratio at 48 h (tumor / kidney, read-out: Tumor/organ ratio t/kidney): 2.9 ± 0.4; tissue to tissue ratio at 48 h (tumor / liver, read-out: Tumor/organ ratio t/liver): 1 ± 0.2; tissue to tissue ratio at 48 h (tumor / lung, read-out: Tumor/organ ratio t/lung): 47 ± 22; tissue to tissue ratio at 48 h (tumor / muscle, read-out: Tumor/organ ratio t/muscle): 413 ± 100; tissue to tissue ratio at 48 h (tumor / small intestine, read-out: Tumor/organ ratio t/small intestine): 55 ± 36; tissue to tissue ratio at 48 h (tumor / spleen, read-out: Tumor/organ ratio t/spleen): 8.3 ± 2.8; tissue to tissue ratio at 48 h (tumor / stomach, read-out: Tumor/organ ratio t/stomach): 46 ± 32
